Data from PubChem BioAssay AID179 (DTP/NCI, 2004).
The source made the active and inactive calls.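 Rule for the calls: active = compounds giving half or more protection of infected cells from virus-caused growth loss, again on retest; inactive = the rest.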

System: CEM cells HIV-1 protection, formazan growth assay
Assay: NCI AIDS Antiviral Assay
Settings: for IC50: measured here: growth of uninfected CEM cells
Procedure, shortened: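 Soluble formazan readout of cell growth; CEM cells ± HIV-1; 5 drug concs. ≥50% protection → retest; ≥50% again = moderately active; reproducible 100% = confirmed active.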

In the case of `COC(=O)C1(O)CC(=O)CCC1c1ccccc1` (configuration not stated), the EC50 is reported as > 355 µM and the IC50 is reported as > 355 µM.

With `C=C1C(=O)C[C@@]23CCC[C@@]12CC(OCOC)C3` (some centres not stated) the outcome was “inactive”.

For `COC[C@@H](N=CC(C)(C)C)C(C)C`, the EC50 was > 200 µM and the IC50 was > 200 µM.

In the case of `COC(=O)C(CC(C)C)NC(=O)NC12CC3CC(CC(F)(C3)C1)C2` (configuration not stated), the EC50 is reported as > 75.9 µM and the IC50 is reported as > 75.9 µM.

In the case of `O=C1NN(c2ccccc2)[C@@H]2CCCC[C@H]12`, the EC50 is reported as > 437 µM and the IC50 is reported as > 437 µM.

For `Cc1ccc(S(=O)(=O)Nn2c3c(cc(C#N)c2=O)CCCCC3)cc1`, the EC50 was > 200 µM and the IC50 was > 200 µM.

`Cc1csc(CCC(N)C(=O)O)n1` (configuration not stated) was tested, and the outcome was “inactive”.

In the case of `CN1C(CC(O)c2ccccc2)CCCC1CC(O)(c1ccccc1)c1ccccc1` (configuration not stated), the EC50 is reported as > 107 µM and the IC50 is reported as 22.9 µM.

In the case of `O=C1c2cc([N+](=O)[O-])ccc2-c2c(S)cccc21`, the EC50 is reported as > 200 µM and the IC50 is reported as 50.1 µM.

In the case of `CC(=O)c1nc2ccccc2n1CC(=O)c1ccc(Cl)cc1`, the EC50 is reported as > 200 µM and the IC50 is reported as 1.35 µM.

`CCCCCOC(=O)c1cccc(NC(=O)CN(CC)CC)c1` was tested, and the EC50 was > 200 µM and the IC50 was 95.5 µM.

In the case of `CC1=C(c2nc3ccccc3s2)C(=O)OC1(C)C`, the EC50 is reported as > 182 µM and the IC50 is reported as 123 µM.

With `COP(=O)(OC)c1nc(P(=O)(OC)OC)nc(P(=O)(OC)OC)n1` the EC50 was > 110 µM and the IC50 was 89.1 µM.

With `CNS(=O)(=O)NNS(=O)(=O)c1ccc(Cl)cc1` the EC50 was > 120 µM and the IC50 was > 120 µM.

For `CC(C)(C)c1ccc(-c2nnc(-c3cc(C#N)cc(-c4nnc(-c5ccc(C(C)(C)C)cc5)o4)c3)o2)cc1`, the EC50 was > 100 µM and the IC50 was > 100 µM.

For `CCOC(=O)c1ccc(N2N=NC3C4CC(C5CCCC54)C32)cc1` (configuration not stated), the EC50 was > 200 µM and the IC50 was > 200 µM.

In the case of `O=C(c1cccc(O)c(=O)c1)C1OC1c1ccccc1` (configuration not stated), the EC50 is reported as > 145 µM and the IC50 is reported as 2.82 µM.

With `CN1C(C(=O)Nc2nccs2)=C(O)c2ccccc2S1(=O)=O` the EC50 was > 200 µM and the IC50 was 191 µM.

With `Nc1cc(OCc2ccccc2)c(OCc2ccccc2)cc1C=O` the EC50 was > 200 µM and the IC50 was 18.6 µM.

For `COC(=O)C1=C(C(=O)OC)C(N(C)C)C(C(=O)OC)=C(C(=O)OC)S1`, the EC50 was > 200 µM and the IC50 was > 200 µM.

`CCOC(=O)CCC(NC(=O)c1ccc(Nc2nc3ccc(C(F)(F)F)cc3nc2-c2ccccc2)cc1)C(=O)OCC` (configuration not stated) was tested, and the EC50 was > 200 µM and the IC50 was 141 µM.

For `O=Cc1ccc(-c2ccc(-c3ccc(C=O)s3)o2)s1`, the outcome was “inactive”.

`CCOC(=O)c1[nH]n(-c2ccccc2)c(=O)c1/C=N/C(=S)Nc1ccccc1OC` was tested, and the EC50 was > 200 µM and the IC50 was 93.3 µM.

`COc1c2c3c(c(OC)c1OC)-c1ccc(O)cc1C3=NCC2` was tested, and the outcome was “inactive”.

With `O=[N+]([O-])c1ccc(OP(=O)(O)OCC2OC(CP(=O)(O)O)C(O)C2O)cc1` (configuration not stated) the EC50 was > 200 µM and the IC50 was > 200 µM.

For `O=C(O)c1cscc1-c1cccc2ccccc12`, the EC50 was > 200 µM and the IC50 was 158 µM.

In the case of `Nc1ccccc1/C=C1/Sc2cc[nH]c2C1=O`, the EC50 is reported as > 63.1 µM and the IC50 is reported as > 63.1 µM.

With `C=C=C(CC1CCCCC1=O)S(=O)(=O)c1ccccc1` (configuration not stated) the EC50 was > 200 µM and the IC50 was 6.46 µM.

In the case of `CC1(C)OC(=O)C2(O1)C(=O)C1CCCCC12` (configuration not stated), the EC50 is reported as > 200 µM and the IC50 is reported as > 200 µM.

For `COC(=O)C1CN=CN1CCc1ccccc1` (configuration not stated), the EC50 was > 200 µM and the IC50 was > 200 µM.

With `Clc1ccc(C(OCn2ccnc2)c2nc3ccccc3[nH]2)c(Cl)c1` (configuration not stated) the EC50 was > 200 µM and the IC50 was 107 µM.

`N#Cc1c(N)c2c(c(-c3ccccc3)c1-c1ccccc1)C(=O)N(N)C2=O` was tested, and the EC50 was > 200 µM and the IC50 was 117 µM.

In the case of `C=CCNC(=S)Nc1ccc(Cl)cc1`, the EC50 is reported as > 200 µM and the IC50 is reported as 120 µM.
